# Results taken from US6984656B2, “Core modified porphyrins” (priority 2001, dated 2006).
# Where two headings read alike, the source gives them in different places. Marks after values point to notes of the source that are not given here.
# What was measured:
# Colo-26 tumors = assay: PDT against implanted Colo-26 tumors in BALB/c mice; type: in vivo
# Experimental: Core-modified porphyrin 6 gave a PDT response in vivo with 694-nm light in BALB/c mice bearing Colo-26 tumors. Animals treated with photosensitizer 6 at 3.25 mg (3.0 μmol)/kg and light required 10.3±0.8 d to reach 400-mm^3 tumor volume, which was more than double the time for control animals (4.3±1.0 d) receiving neither drug nor light (P <0.01).
# The animals were irradiated 4 h post-injection with 135 J cm^−2 of 694-nm red light from a dye laser (75 mW cm^−2 for 30 min). […] For comparison purposes, BALB/C mice bearing Colo-26 tumors were given 2.5 mg (4.0 μmol)/kg of Photofrin® as a 5% aqueous dextrose solution and were irradiated 24 h later with 135 J cm^−2 of 630-nm laser light at a power of 75 mW cm^−2 for PDT with Photofrin®.
# Animals initially were given i.v. (tail vein) injections of sensitizer at various concentrations (0.05to 5.0 μmol/kg). Mice were restrained at various times thereafter without anesthesia in specially designed holders. Fischer 344 female rats were chemically restrained at various times thereafter. In both models, tumors or normal back skin were exposed to light from a xenon arc lamp with appropriate filters or to a dye laser tuned to the absorption maximum determined by in vivo reflectance measurements. Power density of delivered light typically fell in the range of 10-200 mW cm^−2 evenly distributed to a spot size of roughly 1.5 cm and measured by a radiometer. Several dose rates were explored to examine role/limitation of available oxygen on the photodynamic process. Intratumor temperatures were measured with an Omega HYP-O microthermocouple and, when necessary, a stream of nitrogen gas was used to keep intratumor temperatures below 37° C. Animals were examined and measured daily for the first 14 days post treatment and every other day thereafter until the tumors reached 400 mm^3 in mice or until the tumors double in size for Fischer 344 female rats or for 90 days. Tumor size were measured in two dimensions with a caliper. Time to 400 mm^3 or volume doubling times of tumors from control and PDT-treated groups (8-12 animals per group) were compared statistically using the SAS statistical program (SAS, Inc., Cary, N.C.). A P-value of <0.05 is considered significant. The degree of damage to the normal skin within the irradiation field also were noted. Disappearance of tumor with minimal damage to normal skin is the most desirable response. Animals are considered cured if no tumor regrowth occurs by 90 days. In all studies, three control groups were utilized in addition to the treatment group receiving both sensitizer and light: 1) a complete control receiving neither drug nor light, 2) a group receiving sensitizer only, and 3) a group receiving light only. Representative animals from each of the treatment groups were processed for histology immediately, one day, or two weeks after irradiation. Step sections through the tumor were used to define the boundaries of tumor cell damage and death as a function of distance from the skin surface.
# mice = details: 150 mg/kg; cited from earlier work
# Colo-26 cells = assay: Dark and light-induced toxicity toward Colo-26 cells in culture; type: cell-based, murine; details: for EC50: 4 J cm^−2 of 590-800 nm light
# Experimental: In order to compare relative phototoxicity, the core-modified porphyrins of Table 1 were evaluated in culture for dark and light-induced toxicities toward Colo-26 cells, a murine colon carcinoma cell line.
# [1] = Quantum yield for the generation of singlet oxygen; type: physicochemical; details: aqueous solution
# BFS1 sarcoma = details: cited from earlier work
# BALB/c mice [2] = assay: Preliminary toxicity, single intravenous injection in BALB/c mice
# [3] = system: R3230AC rat mammary adenocarcinoma cells; assay: Phototoxicity toward R3230AC cells in culture; type: cell-based; details: 10 μM, 24 h; 570-800 nm light, 0.9 J cm^−2; 24 h post-irradiation
# Experimental: Similar results were obtained with R3230AC rat mammary adenocarcinoma cells in vitro. […] Light-treated cells and dark controls were incubated for 24 h and cell survival was determined. The surviving fraction, 24 h post-irradiation, is shown graphically in FIG. 4c.
# [4] = Single-photon quantum yield for fluorescence; type: physicochemical
# Text: In vivo fluorescence techniques have had significant impact on the development of PDT with respect to the pharmacokinetics of sensitizers and to PDT dosimetry. Photofrin® has been used in fluorescent diagnostics and the fluorescence of TPPS4 has been extensively studied. […] The quantum yield standard used in these studies was a freshly prepared solution of TPPS4 (φF =0.12) dissolved in water.
# [5] = Rate of photobleaching in phosphate-buffered saline; type: physicochemical; details: PBS; 570-750 nm light at 500 mW cm^−2; constant initial absorbance
# Text: One limitation of PDT dosimetry is the rate of photobleaching of the photosensitizer, which can be problematic with Photofrin® and even more problematic with the bacteriochlorins and the chlorins (such as HPPH).
# [6] = in vivo; cited from earlier work
# [7] = Tissue distribution by fluorescence in tumor-bearing BALB/c mice; details: mouse, in vivo
# Experimental: At various times after sensitizer administration, animals were sacrificed and sensitizer levels determined by direct extraction. In tumor-bearing animals (BALB/c mice or female Fischer rats), the concentration of sensitizer was determined by fluorescence spectroscopy where possible. At various time points post-injection of 5 μmol/kg of sensitizer or 90% of the LD10 (whichever is smaller), tissues were removed, weighed, homogenized, and frozen in liquid nitrogen (3-5 animals per time point). The homogenate, after thawing, was taken up in Solvable and the emission from sensitizer was quantified in terms of ng of sensitizer/mg of protein. With non-fluorescent sensitizers, sensitizer content was quantified spectrophotometrically. Distribution ratios were expressed as the uptake or retention of sensitizer in tumor relative to various normal tissues. Intensified digital fluorescence microscopy and/or confocal microscopy on frozen sections of the tumors, which were prepared from samples specified for this purpose, enabled us to assess intratumor sensitizer distributions.
# [8] = 5 mg (5 μmole)/kg of 6; BALB/c mice bearing Colo-26 tumors; cited from earlier work
# [9] = Clearance from the serum by fluorescence; type: in vivo, mice; details: fluorescence measurements, post-injection
# Experimental: BALB/c mice were treated with 5 mg/kg of photosensitizer 6 and the ear-swelling response (ESR) was determined at selected time-points.
# BALB/c mice [10] = details: mouse, in vivo, 10 mg/kg
# two tumor cell lines = assay: Phototoxicity in two tumor cell lines in vitro; type: cell-based
# Experimental: The topological and chemical properties of dichalcogenaporphyrins impart unexpected biological properties relative to the corresponding porphyrin derivatives. 5,10,15,20-tetrakis(4-sulfonatophenyl)-21-thiaporphyrin 8 and 21-selenaporphyrin 9 (FIG. 13) were prepared and evaluated the phototoxicity in two tumor cell lines in vitro.
# [11] = 24 h incubation in dark, survival 24 h later, read-out: effective concentration to give 50% cell-kill of Colo-26 cells in vitro (EC50)
# [12] = 135 J cm^−2, DH-105 2.5, DH-82 0.13, MA-99 0.15 mg/kg, 694 nm 4 h post-injection, Photofrin® 2.5 mg/kg, 630 nm 24 h
molecule,measurement,setting,value
"O=S(=O)(O)c1ccc(-c2c3nc(c(-c4ccc(S(=O)(=O)O)cc4)c4ccc([nH]4)c(-c4ccc(S(=O)(=O)O)cc4)c4nc(c(-c5ccc(S(=O)(=O)O)cc5)c5ccc2[nH]5)C=C4)C=C3)cc1 [TPPS4, 5,10,15,20-Tetrakis (4-sulfonato-phenyl)porphyrin, reference compound]",time to reach 400-mm^3 tumor volume,Colo-26 tumors; TPPS4 at 10 mg/kg,6.7 ± 1.1 days
same,toxicity at high concentrations,mice,neurotoxicity
same,EC50,Colo-26 cells; [11],125 µM
same,quantum yield for the generation of singlet oxygen φ(^1O2),[1],0.71^b
O=S(=O)([O-])c1ccc(-c2c3nc(c(-c4ccc(S(=O)(=O)[O-])cc4)c4ccc(s4)c(-c4ccc(S(=O)(=O)[O-])cc4)c4nc(c(-c5ccc(S(=O)(=O)[O-])cc5)c5ccc2[nH]5)C=C4)C=C3)cc1.[Na+].[Na+].[Na+].[Na+] [sulfonated 1],efficacy in vivo relative to chlorin e6,BFS1 sarcoma; BFS1 sarcoma-bearing mice,comparable to chlorin e6 for efficacy
O=S(=O)([O-])c1ccc(-c2c3nc(c(-c4ccc(F)cc4)c4ccc([se]4)c(-c4ccc(F)cc4)c4nc(c(-c5ccc(S(=O)(=O)[O-])cc5)c5ccc2[se]5)C=C4)C=C3)cc1.[Na+].[Na+] [DH-105],cures (no tumor regrowth 90 days post-treatment),Colo-26 tumors; [12],three cures
same,mean time to 400 mm^3 of the animals not cured,Colo-26 tumors; [12],17 ± 3 days
same,gross abnormalities in organs and tissues after sacrifice,"BALB/c mice [2]; 10 mg/kg i.v., after 90 days",no gross abnormalities were noted
same,toxicity and morbidity,"BALB/c mice [2]; 10 mg/kg, followed 90 days post-injection, normal vivarium light",neither toxicity nor morbidity was observed
same,"phototoxicity relative to Photofrin® toward R3230AC cells (surviving fraction, FIG. 4c)",[3],more phototoxic than Photofrin®
same,fluorescence emission detected,[4],no detectable emission
same,quantum yield for fluorescence φF (± σ),"[4]; one-photon, standard TPPS4 in water",<10^−4
same,EC50,Colo-26 cells; read-out: EC50 against Colo-26 cells,7.9 µM
same,rate of photobleaching (kbleach),[5],1.44 ± 0.03 × 10^4 s^−1
same,quantum yield for the generation of singlet oxygen φ(^1O2),[1],0.55 ± 0.02
"CC(=O)[O-].CC(=O)[O-].CCc1c(CC)c2cc3nc(cnc4cc(OCCOCCOCCOC)c(OCCOCCOCCOC)cc4ncc4nc(cc1[n-]2)C(CCCO)=C4C)C(C)=C3CCCO.O.[Lu+3] [Lu-Tex, lutetium texaphyrin]",skin photosensitivity,[6],minimal skin photosensitivity
"5,10,15,20-tetrakis(4-sulfonatophenyl)-21,23-dithiaporphyrin [Compound 6]",time to reach 400-mm^3 tumor volume,Colo-26 tumors; 6 at 3.25 mg (3.0 μmol)/kg and 694-nm light,10.3 ± 0.8 days
same,tumor selectivity of uptake by fluorescence,[7],preferentially taken up by tumor
same,concentration in tumor 24 h post-injection,[8],0.019±0.007 μg/g of protein
same,EC50,Colo-26 cells; [11],30 µM
same,dark toxicity toward Colo-26 cells,"Colo-26 cells; dark, concentrations ≦100 μg/mL (≦100 μM)",negligible dark toxicity
same,rate of photobleaching (kbleach),[5],0.84 ± 0.02 × 10^4 s^−1
same,time to clearance from the serum,[9],7 days
same,toxicity and morbidity,BALB/c mice [10],"no toxicity, morbidity, or side effects were observed"
O=S(=O)([O-])c1ccc(-c2c3nc(c(-c4ccc(S(=O)(=O)[O-])cc4)c4ccc([se]4)c(-c4ccc(S(=O)(=O)[O-])cc4)c4nc(c(-c5ccc(S(=O)(=O)[O-])cc5)c5ccc2[nH]5)C=C4)C=C3)cc1.[Na+].[Na+].[Na+].[Na+] [Compound 9],phototoxicity in two tumor cell lines,two tumor cell lines,Neither 21-core-modified porphyrin displayed significant phototoxicity
benzoporphyrin derivative,duration of skin photosensitivity,[6],3 to 5 days
"5,10,15,20-tetrakis(4-sulfonatophenyl)-21-thiaporphyrin [Compound 8]",phototoxicity in two tumor cell lines,two tumor cell lines,Neither 21-core-modified porphyrin displayed significant phototoxicity
same,EC50,Colo-26 cells; [11],> 100 µM
same,quantum yield for the generation of singlet oxygen φ(^1O2),[1],0.80 ± 0.02
O=S(=O)([O-])c1ccc(-c2c3nc(c(-c4ccc(S(=O)(=O)[O-])cc4)c4ccc([se]4)c(-c4ccc(S(=O)(=O)[O-])cc4)c4nc(c(-c5ccc(S(=O)(=O)[O-])cc5)c5ccc2[nH]5)C=C4)C=C3)cc1.[Na+].[Na+].[Na+].[Na+] [sulfonated 2],skin photosensitization,BFS1 sarcoma; animals irradiated 24 h post-injection,no skin photosensitization was observed
